Experimental data taken from patent US8440594B2, “Pyridothiazines having herbicidal action” (BASF SE, priority 2010, dated 2013).

How the values were obtained:
Assay in all cases: Greenhouse herbicidal activity, post-emergence treatment
Format in all cases: in vivo
[1] = system: Setaria faberi (SETFA); conditions: application rate 0.5 kg/ha, scale 0 to 100
Description: (§1) The seeds of the test plants were sown separately for each species. For the post-emergence treatment, the test plants were first grown to a height of 3 to 15 cm, depending on the plant habit, and only then treated with the active ingredients which had been suspended or emulsified in water. For this purpose, the test plants were either sown directly and grown in the same containers, or they were first grown separately as seedlings and transplanted into the test containers a few days prior to treatment. Depending on the species, the plants were kept at 10-25° C. or 20-35° C. The test period extended over 2 to 4 weeks. During this time, the plants were tended, and their response to the individual treatments was evaluated. Evaluation was carried out using a scale from 0 to 100. 100 means no emergence of the plants, or complete destruction of at least the aerial moieties, and 0 means no damage, or normal course of growth. A good herbicidal activity is given at values of at least 70 and a very good herbicidal activity is given at values of at least 85. The plants used in the greenhouse experiments belonged to the following species: [table]

[2] = system: Chenopodium album (CHEAL); conditions: for pest or weed control at 500 g/ha: application rate 0.5 kg/ha; for herbicidal activity against CHEAL: scale 0 to 100
Description: as §1

[3] = system: Echinochloa crus-galli (ECHCG); conditions: scale 0 to 100
Description: as §1

[4] = system: Stellaria media (STEME); conditions: scale 0 to 100
Description: as §1

[5] = system: Amaranthus retroflexus (AMARE); conditions: scale 0 to 100
Description: as §1

[6] = system: Galium aparine (GALAP); conditions: scale 0 to 100
Description: as §1

[7] = system: Alopecurus myosuroides (ALOMY); conditions: scale 0 to 100
Description: as §1

[8] = system: Abutilon theophrasti (ABUTH); conditions: application rate 0.25 kg/ha, scale 0 to 100
Description: as §1

[9] = Chenopodium album, scale 0 to 100, read-out: herbicidal activity against CHEAL
[10] = Chenopodium album, application rate 0.25 kg/ha, scale 0 to 100, read-out: herbicidal activity against CHEAL

CON=C1CCS(=O)(=O)c2c1ccc(C1=C(O)c3ncccc3N(CC(F)F)S1(=O)=O)c2C [Compound I-22]
herbicidal activity against SETFA [1]: good herbicidal activity (A good herbicidal activity is given at values of at least 70)

CCCCN1c2cccnc2C(O)=C(c2ccc(Cl)cc2Cl)S1(=O)=O [Compound I-42]
pest or weed control at 500 g/ha [2, 9]: ≥ 85%

O=S1(=O)C(c2cc(F)ccc2C(F)(F)F)=C(O)c2ncccc2N1CC(F)F [Compound I-3]
herbicidal activity against ECHCG ([3]; application rate 0.5 kg/ha): very good herbicidal activity (a very good herbicidal activity is given at values of at least 85)

CCN1c2cccnc2C(O)=C(c2ccc(F)cc2F)S1(=O)=O [Compound I-63]
pest or weed control at 250 g/ha [2, 10]: ≥ 85%

CCN1c2cccnc2C(O)=C(c2cccc(OC(F)(F)F)c2Cl)S1(=O)=O [Compound I-34]
pest or weed control at 233 g/ha ([2]; Chenopodium album, application rate 0.233 kg/ha, scale 0 to 100, read-out: herbicidal activity against CHEAL): ≥ 85% | herbicidal activity against STEME ([4]; application rate 0.233 kg/ha): very good herbicidal activity (a very good herbicidal activity is given at values of at least 85)

CCCN1c2cccnc2C(O)=C(c2ccc(Cl)cc2Cl)S1(=O)=O [Compound I-41]
pest or weed control at 500 g/ha [2, 9]: ≥ 85%

Cc1c(C2=C(O)c3ncccc3N(CC(F)F)S2(=O)=O)ccc2c1S(=O)(=O)CCC2(C)C [Compound I-10]
herbicidal activity against CHEAL ([2]; application rate 0.041 kg/ha): very good herbicidal activity (a very good herbicidal activity is given at values of at least 85) | herbicidal activity against AMARE ([5]; application rate 0.041 kg/ha): very good herbicidal activity (a very good herbicidal activity is given at values of at least 85)

CC1=NOC(c2c(S(C)(=O)=O)ccc(C3=C(O)c4ncccc4N(CC(F)F)S3(=O)=O)c2C)C1 (stereo not shown) [Compound I-8]
herbicidal activity against CHEAL ([2]; application rate 0.447 kg/ha): very good herbicidal activity (a very good herbicidal activity is given at values of at least 85) | herbicidal activity against AMARE ([5]; application rate 0.447 kg/ha): very good herbicidal activity (a very good herbicidal activity is given at values of at least 85)

CCN1c2cccnc2C(O)=C(c2ccc(Cl)cc2Cl)S1(=O)=O [Compound I-40]
pest or weed control at 500 g/ha [2, 9]: ≥ 85%

O=S1(=O)C(c2cc(Cl)cc(N3CCOCC3)c2C(F)(F)F)=C(O)c2ncccc2N1CC(F)F [Compound I-56, 3-[5-chloro-3-morpholino-2-(trifluoromethyl)phenyl]-1-(2,2-difluoroethyl)-2,2-dioxo-pyrido[3,2-c]thiazin-4-ol]
herbicidal activity against AMARE ([5]; application rate 0.25 kg/ha): good herbicidal activity (A good herbicidal activity is given at values of at least 70)

CCN1c2cccnc2C(O)=C(c2ccc(Cl)c(C)c2Cl)S1(=O)=O [Compound I-59]
pest or weed control at 154 g/ha ([2]; Chenopodium album, application rate 0.154 kg/ha, scale 0 to 100, read-out: herbicidal activity against CHEAL): ≥ 85%

CCOc1c(S(=O)(=O)CC)ccc(C2=C(O)c3ncccc3N(CC(C)C)S2(=O)=O)c1Cl [Compound I-29]
herbicidal activity against AMARE ([5]; application rate 0.154 kg/ha): very good herbicidal activity (a very good herbicidal activity is given at values of at least 85)

CCN1c2cccnc2C(O)=C(c2ccc(Br)cc2Cl)S1(=O)=O [Compound I-81]
pest or weed control at 250 g/ha [2, 10]: ≥ 85%

CN1c2cccnc2C(O)=C(c2ccc(Cl)cc2Cl)S1(=O)=O [Compound I-39]
pest or weed control at 500 g/ha [2, 9]: ≥ 85%

O=S1(=O)C(c2ccc(F)cc2F)=C(O)c2ncccc2N1CC(F)F [Compound I-62]
herbicidal activity against CHEAL ([2]; application rate 0.0625 kg/ha): very good herbicidal activity (a very good herbicidal activity is given at values of at least 85) | herbicidal activity against GALAP ([6]; application rate 0.0625 kg/ha): good herbicidal activity (A good herbicidal activity is given at values of at least 70)

CS(=O)(=O)c1ccc(C2=C(O)c3ncccc3N(CC(F)F)S2(=O)=O)c(Cl)c1C1=NOCC1 [Compound I-66]
herbicidal activity against CHEAL ([2]; application rate 0.075 kg/ha): very good herbicidal activity (a very good herbicidal activity is given at values of at least 85) | herbicidal activity against AMARE ([5]; application rate 0.075 kg/ha): very good herbicidal activity (a very good herbicidal activity is given at values of at least 85) | herbicidal activity against STEME ([4]; application rate 0.075 kg/ha): very good herbicidal activity (a very good herbicidal activity is given at values of at least 85)

CC(C)N1c2cccnc2C(O)=C(c2ccccc2Cl)S1(=O)=O [Compound I-51]
pest or weed control at 500 g/ha [2, 9]: ≥ 85%

O=S1(=O)C(c2ccccc2Cl)=C(O)c2ncccc2N1CC(F)F [Compound I-5]
herbicidal activity against ECHCG ([3]; application rate 0.5 kg/ha): good herbicidal activity (A good herbicidal activity is given at values of at least 70)

O=S1(=O)C(c2cc(Cl)ccc2Cl)=C(O)c2ncccc2N1CC(F)F [Compound I-7]
herbicidal activity against ALOMY ([7]; application rate 0.5 kg/ha): very good herbicidal activity (a very good herbicidal activity is given at values of at least 85) | herbicidal activity against GALAP ([6]; application rate 0.5 kg/ha): good herbicidal activity (A good herbicidal activity is given at values of at least 70)

CN1c2cccnc2C(O)=C(c2ccccc2C(F)(F)F)S1(=O)=O [Compound I-45]
herbicidal activity against ABUTH [8]: very good herbicidal activity (a very good herbicidal activity is given at values of at least 85)

CCCCN1c2cccnc2C(O)=C(c2ccc(S(C)(=O)=O)c(OC)c2C)S1(=O)=O [Compound I-32]
pest or weed control at 400 g/ha ([2]; Chenopodium album, application rate 0.4 kg/ha, scale 0 to 100, read-out: herbicidal activity against CHEAL): ≥ 85%

CN1c2cccnc2C(O)=C(c2ccccc2Cl)S1(=O)=O [Compound I-44]
pest or weed control at 100 g/ha ([2]; Chenopodium album, application rate 0.1 kg/ha, scale 0 to 100, read-out: herbicidal activity against CHEAL): ≥ 85% | herbicidal activity against ECHCG ([3]; application rate 0.1 kg/ha): very good herbicidal activity (a very good herbicidal activity is given at values of at least 85)

COC(CN1c2cccnc2C(O)=C(c2ccccc2C(F)(F)F)S1(=O)=O)OC [Compound I-82]
herbicidal activity against ALOMY ([7]; application rate 0.25 kg/ha): very good herbicidal activity (a very good herbicidal activity is given at values of at least 85)

Cc1c(C2=C(O)c3ncccc3N(CC(F)F)S2(=O)=O)ccc2c1C(=O)C(C)(C)CS2(=O)=O [Compound I-71]
herbicidal activity against CHEAL ([2]; application rate 0.25 kg/ha): good herbicidal activity (A good herbicidal activity is given at values of at least 70)

COc1c(S(C)(=O)=O)ccc(C2=C(O)c3ncccc3N(CC(C)C)S2(=O)=O)c1C [Compound I-33]
herbicidal activity against CHEAL ([2]; application rate 0.345 kg/ha): very good herbicidal activity (a very good herbicidal activity is given at values of at least 85) | herbicidal activity against ECHCG ([3]; application rate 0.345 kg/ha): very good herbicidal activity (a very good herbicidal activity is given at values of at least 85)
